Entries after “also recorded” stand apart in the source; their conditions may differ. Read-outs that look alike come from different tables or passages of the source.
Experiments:
[1] = molecular target: T1, vasopressin V2 receptor (Rattus norvegicus, UniProt Q00788); assay: in vivo assay described in PCT/GB2001/000023 (inhibition of urine output); conditions: at 1 hour, dosed at 1 mg/Kg
T1 construct: from tissue; host or cells: whole animal (in vivo)
Description: The ability of the crystalline form of the invention to agonise the vasopressin V2 receptor may be determined using the in vivo assay described in PCT/GB2001/000023.

[2] = Gravimetric Vapour Sorption Analysis (GVA), hygroscopicity testing; format: physicochemical
Procedure: Gravimetric Vapour Sorption Analysis (GVA) was carried out with approximately 20 mg of sample placed into a suitable sample holder such as a wire-mesh vapour sorption balance pan. This was loaded into either an IGAsorp (Hiden Analytical Instruments) or a DVS Intrinsic (Surface Measurement Systems) vapour sorption balance held at 25+/−0.1° C. The sample was then dried by maintaining a 0% humidity environment until no further weight change was recorded (alternatively, the sorption/desorption cycle is initiated at typical ambient conditions of 40% relative humidity). Subsequently, the sample was then subjected to a ramping profile up to 90% relative humidity at 10% relative humidity increments, maintaining the sample at each step until equilibration had been attained (99.5% step completion). Upon reaching equilibration, the relative humidity within the apparatus was ramped to the next step and the equilibration procedure repeated. After completion of the sorption cycle, the sample was then dried using the same procedure. The weight change during the sorption/desorption cycles was then monitored, allowing for the hygroscopic nature of the sample to be determined.
The amorphous form is hygroscopic as indicated by Gravimetric Vapour Sorption Analysis (GVA).
In contrast, there was no significant water uptake observed between 40% RH and 90% RH (approximately 0.3% w/w) by the crystalline solid form (the water sorption/desorption isotherms are shown in FIGS. 9 and 10).

[3] = Stability testing: storage for 6 months at 40° C. and 75% relative humidity (Karl Fischer, HPLC, appearance); format: physicochemical; conditions: for sum of impurities (HPLC), initial / water / moisture content (Karl Fischer), initial: before storage
Procedure: Karl Fischer moisture content determination was carried out using Metrohm 795 KFT volumetric Karl Fischer apparatus. Sample size was approximately 100 mg and the determination was carried out in duplicate.
HPLC data were collected using a Zorbax Extend C18, 2.1 mm×150 mm, 5 μm d.p. column. Flow rate was 0.3 mL/min. Injection volume was 10 μL, detector wavelength 220 nm and column temperature 40° C. Eluent A was 10 mM aqueous ammonium acetate, pH 5.0. Eluent B was 20:80 v/v 10 mM aqueous ammonium acetate: acetonitrile. The gradient programme is shown below: […]
Also, there is no significant degradation as measured by the sum of impurities which increases only from 0.9% to 1.0% (HPLC).

[4] = 6 months at 40° C. and 75% relative humidity

T1 sequence (Q00788 whole entry): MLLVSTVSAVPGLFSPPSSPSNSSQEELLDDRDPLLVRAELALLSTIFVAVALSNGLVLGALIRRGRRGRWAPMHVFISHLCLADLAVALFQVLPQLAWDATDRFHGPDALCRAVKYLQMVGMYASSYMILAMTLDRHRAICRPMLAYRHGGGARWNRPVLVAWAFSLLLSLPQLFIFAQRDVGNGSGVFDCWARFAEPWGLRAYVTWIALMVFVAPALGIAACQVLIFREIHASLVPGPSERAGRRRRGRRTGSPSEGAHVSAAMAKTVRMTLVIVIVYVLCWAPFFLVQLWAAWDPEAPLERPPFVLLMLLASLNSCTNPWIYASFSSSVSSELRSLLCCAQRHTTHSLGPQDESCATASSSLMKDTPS

| inhibition of urine output [1] [%] | hygroscopicity (in words) ([2]; listed as amorphous solid) | sum of impurities (HPLC) after storage [3, 4] [%] | water / moisture content (Karl Fischer) after storage [3, 4] [%] | sum of impurities (HPLC), initial [3] [%] | water / moisture content (Karl Fischer), initial [3] [%] | water uptake between 40% RH and 90% RH ([2]; 25 °C, 40% RH to 90% RH) | change in solid form over the entire water sorption range ([2]; listed as crystalline solid form) | stability (in words) [3, 4] | water / moisture content (Karl Fischer), initial ([3]; listed as Form 1) [%] | Structure (SMILES) | hygroscopicity (in words) [2] | change in solid form over the entire water sorption range [2] | appearance after storage [3, 4] |
| --- | --- | --- | --- | --- | --- | --- | --- | --- | --- | --- | --- | --- | --- |
| 82 | – | – | – | – | – | – | – | – | – | Cc1cc(C(=O)N2CCCCc3ccccc32)ccc1CNC(=O)N1CCC[C@H]1C(=O)N(C)C [1-(2-methyl-4-(2,3,4,5-tetrahydro-1-benzazepin-1-ylcarbonyl)benzylcarbamoyl)-L-proline-N,N-dimethylamide] | – | – | – |
| – | hygroscopic | 3.7 | 5.7 | 1.5 | 1.3 | – | – | – | – | Cc1cc(C(=O)N2CCCCc3ccccc32)ccc1CNC(=O)N1CCC[C@H]1C(=O)N(C)C [amorphous form, 1-(2-methyl-4-(2,3,4,5-tetrahydro-1-benzazepin-1-ylcarbonyl)benzylcarbamoyl)-L-proline-N,N-dimethylamide] | highly hygroscopic | remained stable to recrystallisation | became glassy in appearance and became yellow in colour; also recorded: became glassy in appearance and yellow in colour |
| – | – | 1.0 | 3.8 | 0.9 | – | approximately 0.3 % w/w | no change in solid state form | more stable than the amorphous form | 3.8 | Cc1cc(C(=O)N2CCCCc3ccccc32)ccc1CNC(=O)N1CCC[C@H]1C(=O)N(C)C [crystalline form, 1-(2-methyl-4-(2,3,4,5-tetrahydro-1-benzazepin-1-ylcarbonyl)benzylcarbamoyl)-L-proline-N,N-dimethylamide] | much less hygroscopic than the amorphous form | Neither is there any change in solid form | remains as a white powder |
